Results on 19 compounds are retold here after ChEMBL document CHEMBL3853264 (Medchemcomm, 2016).

Data set [1] can be described thus: Intrinsic clearance in human liver microsomes. The settings on record: read-out: CLH. Format: ADME. On the technique in general: Liver microsomes are a subcellular fraction often used to study metabolism.
The nature of data set [2]: Octanol-water partition co-efficient, log D of the compound by shake flask method. The format is physicochemical.
Data set [3] deals with T1, Solute carrier family 22 member 12 (Homo sapiens, UniProt Q96S37).
T1 sequence (Q96S37 whole entry): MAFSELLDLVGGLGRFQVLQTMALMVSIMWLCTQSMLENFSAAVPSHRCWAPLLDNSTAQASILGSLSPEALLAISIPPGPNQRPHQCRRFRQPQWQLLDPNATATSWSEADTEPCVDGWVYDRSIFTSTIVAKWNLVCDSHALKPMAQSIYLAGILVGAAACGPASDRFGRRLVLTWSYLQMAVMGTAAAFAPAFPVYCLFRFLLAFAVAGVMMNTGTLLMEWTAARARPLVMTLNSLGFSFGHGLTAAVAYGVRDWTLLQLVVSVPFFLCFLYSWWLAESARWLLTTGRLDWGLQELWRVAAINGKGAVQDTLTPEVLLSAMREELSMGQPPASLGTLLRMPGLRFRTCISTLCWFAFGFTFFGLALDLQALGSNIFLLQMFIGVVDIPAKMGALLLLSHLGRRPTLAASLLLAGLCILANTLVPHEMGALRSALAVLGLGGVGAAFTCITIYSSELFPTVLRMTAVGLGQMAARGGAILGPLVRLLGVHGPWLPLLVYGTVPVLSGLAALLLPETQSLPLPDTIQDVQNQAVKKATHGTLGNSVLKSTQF
The data set can be described thus: Inhibition of URAT1 (unknown origin).

Data set [4] addresses T1, Solute carrier family 22 member 12. Description: Inhibition of human C-terminal eGFP-tagged URAT1 long isoform expressed in CHO cells assessed as decrease in [14C]-uric acid uptake preincubated for 15 mins followed by [14C]-uric acid addition and incubated in dark for 3 hrs by scintillation counting method. Format: cell-based.
The nature of data set [5]: Drug level in rat hepatocytes treated with 4-(3-chloro-4-(hydroxymethyl)phenoxy)-3-cyano-N-(5-fluoropyridin-2-yl)benzenesulfonamide. The format is ADME, cell-based, Hepatocyte.

The term logD denotes the decadic logarithm of the distribution of all forms, ionised or not, between an organic phase and buffer at a given pH. A high value points to a more lipophilic compound. Turning to `N#Cc1ccc(Oc2ccc(S(=O)(=O)Nc3ccc(F)cn3)cc2C#N)c(Cl)c1`, the microsomal CLint in data set [1] was less than 8 µL/min/mg. Moreover, the logD in data set [2] is 1.9.

`N#Cc1cc(Oc2ccc(S(=O)(=O)Nc3ccc(F)cn3)cc2C#N)ccc1Cl`: the microsomal CLint in data set [1] was determined as 134 µL/min/mg. The same compound showed a logD in data set [2] of 2.

As for `N#Cc1cccc(Oc2ccc(S(=O)(=O)Nc3ccc(F)cn3)cc2C#N)c1`, the microsomal CLint in data set [1] is 65 µL/min/mg.

On to `N#Cc1cc(S(=O)(=O)Nc2ccc(F)cn2)ccc1Oc1ccc(F)c(Cl)c1`, for which the microsomal CLint in data set [1] was 163 µL/min/mg. Moreover, the logD in data set [2] was found to be 2.3.

A word on the IC50: it is the concentration that inhibits the measured activity by half. For `CC(C)(Sc1ccncc1-c1ccc(C#N)c2ccccc12)C(=O)O`, the IC50 in data set [3] was found to be 0.023 µM.

Take `N#Cc1ccc(Oc2ccc(S(=O)(=O)Nc3ccccn3)cc2C#N)cc1Cl`: the concentration for half-maximal inhibition (IC50) in data set [4] stood at 0.115 µM.

As to `CC(C)(Oc1ccc(C(=O)c2ccc(Cl)cc2)cc1)C(=O)O` [FENOFIBRIC ACID], the half-inhibitory concentration (IC50) in data set [3] was found to be 11 µM.

As to `N#Cc1ccc(Oc2ccc(S(=O)(=O)Nc3ccc(F)cn3)c(F)c2)cc1F`, the IC50 in data set [4] is 0.037 µM.

As to `N#Cc1cc(Oc2ccc(S(=O)(=O)Nc3ccc(F)cn3)cc2C#N)ccc1F`, the microsomal CLint in data set [1] came to 83 µL/min/mg. The log distribution coefficient (logD) in data set [2] came to 1.5.

In turn, `CC(C)OC(=O)C(C)(C)Oc1ccc(C(=O)c2ccc(Cl)cc2)cc1` [FENOFIBRATE] showed a concentration for half-maximal inhibition (IC50) in data set [3] of more than 75 µM.

Take `N#Cc1ccc(Oc2ccc(S(=O)(=O)Nc3ccc(F)cn3)cc2C#N)cc1`: in data set [1], the microsomal CLint was less than 8 µL/min/mg.

Take `N#Cc1ccc(Oc2ccc(S(=O)(=O)Nc3ccc(F)cn3)cc2C#N)cc1F`: in data set [1], the microsomal CLint is less than 8 µL/min/mg. In data set [2], this compound had a pH-dependent lipophilicity (logD) of 1.4.

`N#Cc1ccc(Oc2ccc(S(=O)(=O)Nc3ccc(F)cn3)cc2F)cc1F`: the IC50 in data set [4] came to 0.382 µM.

As for `N#Cc1ccc(Oc2ccc(S(=O)(=O)Nc3ccncn3)cc2C#N)cc1Cl`, the IC50 in data set [4] worked out at 5.15 µM.

For `N#Cc1ccc(Oc2ccc(S(=O)(=O)Nc3cccnc3)cc2C#N)cc1Cl`, the concentration for half-maximal inhibition (IC50) in data set [4] came to 0.395 µM.

Take `N#Cc1ccc(Oc2ccc(S(=O)(=O)Nc3ccc(F)cn3)cc2)cc1F`: in data set [4], the IC50 was found to be 0.088 µM.

For the compound `N#Cc1ccc(Oc2ccc(S(=O)(=O)Nc3ncccn3)cc2C#N)cc1Cl`, the 50% inhibitory concentration (IC50) in data set [4] worked out at 1.82 µM.

On to `N#Cc1ccc(Oc2ccc(S(=O)(=O)Nc3ncns3)cc2C#N)cc1Cl`, for which the concentration for half-maximal inhibition (IC50) in data set [4] was determined as 1.12 µM.

As to `N#Cc1cc(S(=O)(=O)Nc2ccc(F)cn2)ccc1Oc1ccc(CO[C@@H]2O[C@H](C(=O)O)[C@@H](O)[C@H](O)[C@H]2O)c(Cl)c1`, the Drug metabolism result in data set [5] is “Metabolite_Detected”.
